PubChem BioAssay (NCI)
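Protocol summary: plate cells (96-well), add compound at 5 concentrations, incubate 48 h, interpolate endpoints linearly. TGI is the concentration that stops growth completely.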

What was measured:
Assay in all cases: inhibition of tumour cell growth, NCI panel, 48 h
DMS 114 small cell lung = test system: DMS 114 small cell lung
DLD-1 colon = test system: DLD-1 colon
A498 renal = test system: A498 renal
HOP-92 NSCLC = test system: HOP-92 NSCLC
NCI-H460 lung = test system: NCI-H460 lung
K-562 leukemia = test system: K-562 leukemia
COLO 205 colon = test system: COLO 205 colon
UACC-62 melanoma = test system: UACC-62 melanoma
U251 CNS = test system: U251 CNS
HCT-116 colon = test system: HCT-116 colon
OVCAR-3 ovarian = test system: OVCAR-3 ovarian
SN12C renal = test system: SN12C renal
M19-MEL melanoma = test system: M19-MEL melanoma
ACHN renal = test system: ACHN renal
OVCAR-5 ovarian = test system: OVCAR-5 ovarian
HOP-62 NSCLC = test system: HOP-62 NSCLC
KM12 colon = test system: KM12 colon
SNB-75 CNS = test system: SNB-75 CNS
786-0 renal = test system: 786-0 renal
KM20L2 colon = test system: KM20L2 colon
SNB-19 CNS = test system: SNB-19 CNS
HT29 colon = test system: HT29 colon
HCC-2998 colon = test system: HCC-2998 colon
UO-31 renal = test system: UO-31 renal
MALME-3M melanoma = test system: MALME-3M melanoma
M14 melanoma = test system: M14 melanoma
HL-60(TB) leukemia = test system: HL-60(TB) leukemia
NCI-H226 lung = test system: NCI-H226 lung
RPMI-8226 leukemia = test system: RPMI-8226 leukemia
A549 NSCLC = test system: A549 NSCLC
IGROV1 ovarian = test system: IGROV1 ovarian
SW-620 colon = test system: SW-620 colon
LXFL 529 NSCLC = test system: LXFL 529 NSCLC
OVCAR-8 ovarian = test system: OVCAR-8 ovarian
HCT-15 colon = test system: HCT-15 colon
SNB-78 CNS = test system: SNB-78 CNS
EKVX NSCLC = test system: EKVX NSCLC
NCI-H23 lung = test system: NCI-H23 lung
SF-268 CNS = test system: SF-268 CNS
LOX IMVI melanoma = test system: LOX IMVI melanoma
HS 578T breast = test system: HS 578T breast
MDA-MB-231 breast = test system: MDA-MB-231 breast
NCI/ADR-RES ovarian = test system: NCI/ADR-RES ovarian
T-47D breast = test system: T-47D breast
SR leukemia = test system: SR leukemia
SF-539 CNS = test system: SF-539 CNS
TK-10 renal = test system: TK-10 renal
CAKI-1 renal = test system: CAKI-1 renal
SK-MEL-5 melanoma = test system: SK-MEL-5 melanoma
SK-MEL-28 melanoma = test system: SK-MEL-28 melanoma
MOLT-4 leukemia = test system: MOLT-4 leukemia
MCF7 breast = test system: MCF7 breast
SF-295 CNS = test system: SF-295 CNS
MDA-N = test system: MDA-N
BT-549 breast = test system: BT-549 breast
DU-145 prostate = test system: DU-145 prostate
CCRF-CEM leukemia = test system: CCRF-CEM leukemia
UACC-257 melanoma = test system: UACC-257 melanoma
RXF 393 renal = test system: RXF 393 renal
MDA-MB-435 = test system: MDA-MB-435
SK-MEL-2 melanoma = test system: SK-MEL-2 melanoma
SK-OV-3 ovarian = test system: SK-OV-3 ovarian
NCI-H522 lung = test system: NCI-H522 lung
PC-3 prostate = test system: PC-3 prostate
OVCAR-4 ovarian = test system: OVCAR-4 ovarian

Structure (SMILES): COc1cccc(C2CC(C)=Nc3c(ccc4c3C(=O)c3ccccc3C4=O)N2)c1O (configuration not stated)
- TGI (DMS 114 small cell lung): > 100 µM
- TGI (DLD-1 colon): > 100 µM
- TGI (A498 renal): > 100 µM
- TGI (HOP-92 NSCLC): > 100 µM
- TGI (NCI-H460 lung): > 100 µM
- TGI (K-562 leukemia): > 100 µM
- TGI (COLO 205 colon): > 100 µM
- TGI (UACC-62 melanoma): > 100 µM
- TGI (U251 CNS): > 100 µM
- TGI (HCT-116 colon): > 100 µM
- TGI (OVCAR-3 ovarian): 95.1 µM
- TGI (SN12C renal): > 100 µM
- TGI (M19-MEL melanoma): > 100 µM
- TGI (ACHN renal): > 100 µM
- TGI (OVCAR-5 ovarian): > 100 µM
- TGI (HOP-62 NSCLC): > 100 µM
- TGI (KM12 colon): > 100 µM
- TGI (SNB-75 CNS): > 100 µM
- TGI (786-0 renal): > 100 µM
- TGI (KM20L2 colon): > 100 µM
- TGI (SNB-19 CNS): > 100 µM
- TGI (HT29 colon): > 100 µM
- TGI (HCC-2998 colon): > 100 µM
- TGI (UO-31 renal): > 100 µM
- TGI (MALME-3M melanoma): > 100 µM
- TGI (M14 melanoma): > 100 µM
- TGI (HL-60(TB) leukemia): > 100 µM
- TGI (NCI-H226 lung): > 100 µM
- TGI (RPMI-8226 leukemia): > 100 µM
- TGI (A549 NSCLC): > 100 µM
- TGI (IGROV1 ovarian): > 100 µM
- TGI (SW-620 colon): > 100 µM
- TGI (LXFL 529 NSCLC): > 100 µM
- TGI (OVCAR-8 ovarian): > 100 µM
- TGI (HCT-15 colon): > 100 µM
- TGI (SNB-78 CNS): > 100 µM
- TGI (EKVX NSCLC): > 100 µM
- TGI (NCI-H23 lung): > 100 µM

Structure (SMILES): C=CCSS/C=C/CS(=O)CC=C (configuration not stated)
- TGI (SF-268 CNS): 60.7 µM
- TGI (LOX IMVI melanoma): 29.9 µM
- TGI (A498 renal): > 100 µM
- TGI (HOP-92 NSCLC): > 100 µM
- TGI (NCI-H460 lung): > 100 µM
- TGI (HS 578T breast): > 77.4 µM
- TGI (MDA-MB-231 breast): 56.3 µM
- TGI (K-562 leukemia): > 77.9 µM
- TGI (COLO 205 colon): 66.5 µM
- TGI (NCI/ADR-RES ovarian): 74.5 µM
- TGI (UACC-62 melanoma): > 82.7 µM
- TGI (U251 CNS): > 100 µM
- TGI (T-47D breast): > 100 µM
- TGI (HCT-116 colon): 27.3 µM
- TGI (OVCAR-3 ovarian): > 95.9 µM
- TGI (SR leukemia): > 55.6 µM
- TGI (SN12C renal): > 65.9 µM
- TGI (SF-539 CNS): 51.6 µM
- TGI (TK-10 renal): > 100 µM
- TGI (CAKI-1 renal): > 62.7 µM
- TGI (ACHN renal): > 100 µM
- TGI (OVCAR-5 ovarian): 98.8 µM
- TGI (SK-MEL-5 melanoma): > 100 µM
- TGI (HOP-62 NSCLC): > 100 µM
- TGI (SK-MEL-28 melanoma): 49.9 µM
- TGI (KM12 colon): > 100 µM
- TGI (MOLT-4 leukemia): > 29.5 µM
- TGI (SNB-75 CNS): > 100 µM
- TGI (786-0 renal): 33.4 µM
- TGI (SNB-19 CNS): > 100 µM
- TGI (HT29 colon): > 74.6 µM
- TGI (MCF7 breast): > 100 µM
- TGI (HCC-2998 colon): > 100 µM
- TGI (SF-295 CNS): > 100 µM
- TGI (MDA-N): 35.9 µM
- TGI (BT-549 breast): > 56.7 µM
- TGI (UO-31 renal): > 100 µM
- TGI (MALME-3M melanoma): > 100 µM
- TGI (M14 melanoma): 44.1 µM
- TGI (DU-145 prostate): > 100 µM
- TGI (HL-60(TB) leukemia): > 100 µM
- TGI (NCI-H226 lung): > 100 µM
- TGI (RPMI-8226 leukemia): 48.8 µM
- TGI (CCRF-CEM leukemia): > 100 µM
- TGI (A549 NSCLC): > 100 µM
- TGI (UACC-257 melanoma): > 100 µM
- TGI (IGROV1 ovarian): > 100 µM
- TGI (SW-620 colon): 22.7 µM
- TGI (RXF 393 renal): 55.6 µM
- TGI (OVCAR-8 ovarian): 37.1 µM
- TGI (MDA-MB-435): 37.3 µM
- TGI (SK-MEL-2 melanoma): 97.6 µM
- TGI (SK-OV-3 ovarian): > 100 µM
- TGI (HCT-15 colon): > 100 µM
- TGI (NCI-H522 lung): 32.3 µM
- TGI (PC-3 prostate): > 100 µM
- TGI (OVCAR-4 ovarian): 99.3 µM
- TGI (EKVX NSCLC): > 100 µM
- TGI (NCI-H23 lung): > 100 µM
